Measurements reported in the supplement of paper PMC10307832.

Assays:
Assay in all cases: relative viability (nuclei count vs DMSO), 5 days (fraction); higher = more cells survive
ChaGo-K-1 = tested on: ChaGo-K-1
Method in brief: (§1)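 Lung cancer cell lines in 1536-well plates were dosed by pin tool the day after seeding, either with one drug alone or with a fixed anchor-drug dose plus five library-drug doses (not always all listed) in √10 steps. After 5 days, cells were fixed and their nuclei stained in one step (final 0.05% Triton X-100, 1% formaldehyde, 1 ug/ml Hoechst), then counted on 4× images. Relative viability is the nuclei count in treated wells divided by that in vehicle wells. Values are medians of duplicate plates.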

EKVX = tested on: EKVX
Method in brief: as §1

EMC-BAC-2 = tested on: EMC-BAC-2
Method in brief: as §1

EPLC-272H = tested on: EPLC-272H
Method in brief: as §1

HCC-78 = tested on: HCC-78
Method in brief: as §1

HCC-827 = tested on: HCC-827
Method in brief: as §1

LCLC-103H = tested on: LCLC-103H
Method in brief: as §1

LK-2 = tested on: LK-2
Method in brief: as §1

LU99A = tested on: LU99A
Method in brief: as §1

LXF-289 = tested on: LXF-289
Method in brief: as §1

NCI-H1666 = tested on: NCI-H1666
Method in brief: as §1

NCI-H1975 = tested on: NCI-H1975
Method in brief: as §1

NCI-H2126 = tested on: NCI-H2126
Method in brief: as §1

NCI-H2342 = tested on: NCI-H2342
Method in brief: as §1

NCI-H23 = tested on: NCI-H23
Method in brief: as §1

NCI-H2405 = tested on: NCI-H2405
Method in brief: as §1

NCI-H322M = tested on: NCI-H322M
Method in brief: as §1

PC-14 = tested on: PC-14
Method in brief: as §1

RERF-LC-KJ = tested on: RERF-LC-KJ
Method in brief: as §1

SK-LU-1 = tested on: SK-LU-1
Method in brief: as §1

SW 1573 = tested on: SW 1573
Method in brief: as §1

SW 900 = tested on: SW 900
Method in brief: as §1

Which relative viability (ChaGo-K-1; first compound 0.08 µM) does the source give for COc1nc(C)cnc1NS(=O)(=O)c1cccnc1-c1ccc(-c2nnco2)cc1 [Zibotentan] + Cc1cc(Nc2cc(N3CCN(C)CC3)nc(Sc3ccc(NC(=O)C4CC4)cc3)n2)n[nH]1 [Tozasertib] (partner 0.1 µM) here?
Its relative viability is 0.208.

And the relative viability (ChaGo-K-1; first compound 0.253 µM)?
Its relative viability is 0.218.

What about the relative viability (ChaGo-K-1; first compound 0.8 µM) of the same molecule?
Its relative viability is 0.21.

And the relative viability (ChaGo-K-1; first compound 2.53 µM)?
The relative viability was 0.24.

What about the relative viability (EKVX; first compound 0.08 µM) of the same molecule?
The relative viability was 0.414.

And the relative viability (EKVX; first compound 0.253 µM)?
The relative viability was 0.348.

What about the relative viability (EKVX; first compound 0.8 µM) of the same molecule?
The relative viability was 0.365.

And the relative viability (EKVX; first compound 2.53 µM)?
Its relative viability is 0.428.

And the relative viability (EMC-BAC-2; first compound 0.08 µM)?
Its relative viability is 0.286.

What about the relative viability (EMC-BAC-2; first compound 0.8 µM) of the same molecule?
The relative viability was 0.293.

What about the relative viability (EMC-BAC-2; first compound 2.53 µM) of the same molecule?
Its relative viability is 0.274.

And the relative viability (EPLC-272H; first compound 0.08 µM)?
The relative viability was 0.264.

What about the relative viability (EPLC-272H; first compound 0.253 µM) of the same molecule?
Its relative viability is 0.234.

What about the relative viability (EPLC-272H; first compound 0.8 µM) of the same molecule?
Its relative viability is 0.331.

What about the relative viability (EPLC-272H; first compound 2.53 µM) of the same molecule?
Its relative viability is 0.281.

What about the relative viability (HCC-78; first compound 0.08 µM) of the same molecule?
Its relative viability is 0.526.

And the relative viability (HCC-78; first compound 0.253 µM)?
The relative viability was 0.393.

And the relative viability (HCC-78; first compound 0.8 µM)?
The relative viability was 0.306.

And the relative viability (HCC-78; first compound 2.53 µM)?
The relative viability was 0.435.

And the relative viability (HCC-827; first compound 0.08 µM)?
The relative viability was 0.438.

What about the relative viability (HCC-827; first compound 0.253 µM) of the same molecule?
The relative viability was 0.411.

What about the relative viability (HCC-827; first compound 0.8 µM) of the same molecule?
Its relative viability is 0.409.

And the relative viability (HCC-827; first compound 2.53 µM)?
Its relative viability is 0.371.

What about the relative viability (LCLC-103H; first compound 0.08 µM) of the same molecule?
The relative viability was 0.451.

And the relative viability (LCLC-103H; first compound 0.253 µM)?
The relative viability was 0.509.

What about the relative viability (LCLC-103H; first compound 0.8 µM) of the same molecule?
Its relative viability is 0.412.

What about the relative viability (LCLC-103H; first compound 2.53 µM) of the same molecule?
The relative viability was 0.478.

What about the relative viability (LK-2; first compound 0.08 µM) of the same molecule?
The relative viability was 0.148.

And the relative viability (LK-2; first compound 0.253 µM)?
Its relative viability is 0.191.

What about the relative viability (LK-2; first compound 0.8 µM) of the same molecule?
The relative viability was 0.166.

What about the relative viability (LK-2; first compound 2.53 µM) of the same molecule?
The relative viability was 0.198.

What about the relative viability (LU99A; first compound 0.08 µM) of the same molecule?
The relative viability was 0.319.

And the relative viability (LU99A; first compound 0.253 µM)?
Its relative viability is 0.25.

What about the relative viability (LU99A; first compound 0.8 µM) of the same molecule?
The relative viability was 0.302.

What about the relative viability (LU99A; first compound 2.53 µM) of the same molecule?
The relative viability was 0.301.

And the relative viability (LXF-289; first compound 0.08 µM)?
Its relative viability is 0.212.

What about the relative viability (LXF-289; first compound 0.253 µM) of the same molecule?
The relative viability was 0.161.

What about the relative viability (LXF-289; first compound 0.8 µM) of the same molecule?
The relative viability was 0.227.

And the relative viability (LXF-289; first compound 2.53 µM)?
The relative viability was 0.225.

And the relative viability (NCI-H1666; first compound 0.08 µM)?
Its relative viability is 0.582.

What about the relative viability (NCI-H1666; first compound 0.253 µM) of the same molecule?
Its relative viability is 0.593.

And the relative viability (NCI-H1666; first compound 0.8 µM)?
Its relative viability is 0.784.

And the relative viability (NCI-H1666; first compound 2.53 µM)?
Its relative viability is 0.646.

And the relative viability (NCI-H1975; first compound 0.08 µM)?
Its relative viability is 0.732.

What about the relative viability (NCI-H1975; first compound 0.253 µM) of the same molecule?
Its relative viability is 0.695.

What about the relative viability (NCI-H1975; first compound 0.8 µM) of the same molecule?
The relative viability was 0.727.

And the relative viability (NCI-H1975; first compound 2.53 µM)?
The relative viability was 0.831.

And the relative viability (NCI-H2126; first compound 0.08 µM)?
Its relative viability is 0.891.

And the relative viability (NCI-H2126; first compound 0.8 µM)?
Its relative viability is 0.813.

What about the relative viability (NCI-H2126; first compound 2.53 µM) of the same molecule?
Its relative viability is 0.875.

And the relative viability (NCI-H2342; first compound 0.08 µM)?
The relative viability was 0.496.

What about the relative viability (NCI-H2342; first compound 0.253 µM) of the same molecule?
The relative viability was 0.446.

What about the relative viability (NCI-H2342; first compound 0.8 µM) of the same molecule?
The relative viability was 0.493.

And the relative viability (NCI-H2342; first compound 2.53 µM)?
Its relative viability is 0.667.

What about the relative viability (NCI-H23; first compound 0.08 µM) of the same molecule?
Its relative viability is 0.284.

And the relative viability (NCI-H23; first compound 0.253 µM)?
The relative viability was 0.331.

What about the relative viability (NCI-H23; first compound 0.8 µM) of the same molecule?
The relative viability was 0.314.

What about the relative viability (NCI-H23; first compound 2.53 µM) of the same molecule?
The relative viability was 0.413.

What about the relative viability (NCI-H2405; first compound 0.08 µM) of the same molecule?
The relative viability was 0.747.

And the relative viability (NCI-H2405; first compound 0.253 µM)?
The relative viability was 0.716.

What about the relative viability (NCI-H2405; first compound 0.8 µM) of the same molecule?
Its relative viability is 0.798.

What about the relative viability (NCI-H2405; first compound 2.53 µM) of the same molecule?
Its relative viability is 0.77.

And the relative viability (NCI-H322M; first compound 0.08 µM)?
The relative viability was 0.464.

What about the relative viability (NCI-H322M; first compound 0.253 µM) of the same molecule?
The relative viability was 0.479.

What about the relative viability (NCI-H322M; first compound 0.8 µM) of the same molecule?
Its relative viability is 0.496.

What about the relative viability (NCI-H322M; first compound 2.53 µM) of the same molecule?
The relative viability was 0.534.

What about the relative viability (PC-14; first compound 0.08 µM) of the same molecule?
Its relative viability is 0.555.

What about the relative viability (PC-14; first compound 0.253 µM) of the same molecule?
The relative viability was 0.527.

What about the relative viability (PC-14; first compound 0.8 µM) of the same molecule?
Its relative viability is 0.583.

And the relative viability (PC-14; first compound 2.53 µM)?
Its relative viability is 0.567.

And the relative viability (RERF-LC-KJ; first compound 0.08 µM)?
Its relative viability is 0.479.

And the relative viability (RERF-LC-KJ; first compound 0.8 µM)?
The relative viability was 0.562.

And the relative viability (RERF-LC-KJ; first compound 2.53 µM)?
Its relative viability is 0.493.

What about the relative viability (SK-LU-1; first compound 0.08 µM) of the same molecule?
Its relative viability is 0.327.

And the relative viability (SK-LU-1; first compound 0.253 µM)?
Its relative viability is 0.283.

And the relative viability (SK-LU-1; first compound 0.8 µM)?
The relative viability was 0.336.

And the relative viability (SK-LU-1; first compound 2.53 µM)?
Its relative viability is 0.424.

What about the relative viability (SW 1573; first compound 0.08 µM) of the same molecule?
The relative viability was 0.229.

And the relative viability (SW 1573; first compound 0.8 µM)?
Its relative viability is 0.257.

And the relative viability (SW 1573; first compound 2.53 µM)?
The relative viability was 0.221.

And the relative viability (SW 900; first compound 0.08 µM)?
The relative viability was 0.553.

What about the relative viability (SW 900; first compound 0.253 µM) of the same molecule?
Its relative viability is 0.549.

And the relative viability (SW 900; first compound 0.8 µM)?
Its relative viability is 0.617.

And the relative viability (SW 900; first compound 2.53 µM)?
The relative viability was 0.586.
